According to PubChem BioAssay (NCI):
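1) Cells in 96-well plates. 2) Compound, 48 h, 5 concentrations. 3) Linear interpolation between surrounding doses. 4) Unreached endpoint = highest concentration. At the TGI there is no net growth.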

Tests used:
Assay in all cases: inhibition of tumour cell growth, NCI panel, 48 h
SK-MEL-28 melanoma = test system: SK-MEL-28 melanoma
SF-295 CNS = test system: SF-295 CNS
SW-620 colon = test system: SW-620 colon
LOX IMVI melanoma = test system: LOX IMVI melanoma
DLD-1 colon = test system: DLD-1 colon
UO-31 renal = test system: UO-31 renal
A549 NSCLC = test system: A549 NSCLC
IGROV1 ovarian = test system: IGROV1 ovarian
SN12C renal = test system: SN12C renal
HOP-92 NSCLC = test system: HOP-92 NSCLC
UACC-257 melanoma = test system: UACC-257 melanoma
U251 CNS = test system: U251 CNS
SF-268 CNS = test system: SF-268 CNS
HL-60(TB) leukemia = test system: HL-60(TB) leukemia
HCT-15 colon = test system: HCT-15 colon
SF-539 CNS = test system: SF-539 CNS
RPMI-8226 leukemia = test system: RPMI-8226 leukemia
TK-10 renal = test system: TK-10 renal
SK-MEL-5 melanoma = test system: SK-MEL-5 melanoma
OVCAR-8 ovarian = test system: OVCAR-8 ovarian
SK-MEL-2 melanoma = test system: SK-MEL-2 melanoma
HOP-62 NSCLC = test system: HOP-62 NSCLC
NCI-H23 lung = test system: NCI-H23 lung
SNB-75 CNS = test system: SNB-75 CNS
CCRF-CEM leukemia = test system: CCRF-CEM leukemia
EKVX NSCLC = test system: EKVX NSCLC
K-562 leukemia = test system: K-562 leukemia
COLO 205 colon = test system: COLO 205 colon
786-0 renal = test system: 786-0 renal
CAKI-1 renal = test system: CAKI-1 renal
M19-MEL melanoma = test system: M19-MEL melanoma
ACHN renal = test system: ACHN renal
MOLT-4 leukemia = test system: MOLT-4 leukemia
DMS 273 small cell lung = test system: DMS 273 small cell lung
KM12 colon = test system: KM12 colon
NCI-H522 lung = test system: NCI-H522 lung
KM20L2 colon = test system: KM20L2 colon
MALME-3M melanoma = test system: MALME-3M melanoma
SK-OV-3 ovarian = test system: SK-OV-3 ovarian
SNB-78 CNS = test system: SNB-78 CNS
NCI-H460 lung = test system: NCI-H460 lung
OVCAR-5 ovarian = test system: OVCAR-5 ovarian
RXF 393 renal = test system: RXF 393 renal
HCC-2998 colon = test system: HCC-2998 colon
NCI-H226 lung = test system: NCI-H226 lung
HOP-18 NSCLC = test system: HOP-18 NSCLC
OVCAR-3 ovarian = test system: OVCAR-3 ovarian
UACC-62 melanoma = test system: UACC-62 melanoma
A498 renal = test system: A498 renal
HT29 colon = test system: HT29 colon
SNB-19 CNS = test system: SNB-19 CNS
DMS 114 small cell lung = test system: DMS 114 small cell lung
SR leukemia = test system: SR leukemia
HCT-116 colon = test system: HCT-116 colon
OVCAR-4 ovarian = test system: OVCAR-4 ovarian
M14 melanoma = test system: M14 melanoma

For `Cc1ccc(/C=C/C(=O)c2sc(C(N)=S)nc2C)cc1`, the TGI (SK-MEL-28 melanoma) was greater than 100 µM, the TGI (SF-295 CNS) was greater than 100 µM and the TGI (SW-620 colon) was greater than 100 µM. For the same compound, the TGI (LOX IMVI melanoma) was greater than 100 µM, the TGI (DLD-1 colon) was greater than 100 µM and the TGI (UO-31 renal) was greater than 100 µM. It also gave a TGI (A549 NSCLC) greater than 100 µM, a TGI (IGROV1 ovarian) greater than 100 µM and a TGI (SN12C renal) greater than 100 µM. It also gave a TGI (HOP-92 NSCLC) greater than 100 µM, a TGI (UACC-257 melanoma) greater than 100 µM and a TGI (U251 CNS) greater than 100 µM. For the same compound, the TGI (SF-268 CNS) was greater than 100 µM, the TGI (HL-60(TB) leukemia) was greater than 100 µM and the TGI (HCT-15 colon) was greater than 100 µM. For the same compound, the TGI (SF-539 CNS) was greater than 100 µM, the TGI (RPMI-8226 leukemia) was greater than 100 µM and the TGI (TK-10 renal) was greater than 100 µM. It also gave a TGI (SK-MEL-5 melanoma) greater than 100 µM, a TGI (OVCAR-8 ovarian) greater than 100 µM and a TGI (SK-MEL-2 melanoma) greater than 100 µM. The TGI (HOP-62 NSCLC) was greater than 100 µM, the TGI (NCI-H23 lung) was greater than 100 µM and the TGI (SNB-75 CNS) was greater than 100 µM. It also gave a TGI (CCRF-CEM leukemia) greater than 100 µM, a TGI (EKVX NSCLC) greater than 100 µM and a TGI (K-562 leukemia) greater than 100 µM. It also gave a TGI (COLO 205 colon) greater than 100 µM, a TGI (786-0 renal) greater than 100 µM and a TGI (CAKI-1 renal) greater than 100 µM. The TGI (M19-MEL melanoma) was greater than 100 µM, the TGI (ACHN renal) was greater than 100 µM and the TGI (MOLT-4 leukemia) was greater than 100 µM. It also gave a TGI (DMS 273 small cell lung) greater than 100 µM, a TGI (KM12 colon) greater than 100 µM and a TGI (NCI-H522 lung) greater than 100 µM. It also gave a TGI (KM20L2 colon) greater than 100 µM, a TGI (MALME-3M melanoma) greater than 100 µM and a TGI (SK-OV-3 ovarian) greater than 100 µM. The TGI (SNB-78 CNS) was greater than 100 µM, the TGI (NCI-H460 lung) was greater than 100 µM and the TGI (OVCAR-5 ovarian) was greater than 100 µM. The TGI (RXF 393 renal) was greater than 100 µM, the TGI (HCC-2998 colon) was greater than 100 µM and the TGI (NCI-H226 lung) was greater than 100 µM. For the same compound, the TGI (HOP-18 NSCLC) was greater than 100 µM, the TGI (OVCAR-3 ovarian) was greater than 100 µM and the TGI (UACC-62 melanoma) was greater than 100 µM. The TGI (A498 renal) was greater than 100 µM and the TGI (HT29 colon) was greater than 100 µM.

Work on `COC(=O)C1C2CC3C(OC(=O)C31)C2I` (stereo not drawn) yielded a TGI (SK-MEL-28 melanoma) greater than 10 µM, a TGI (SF-295 CNS) greater than 100 µM and a TGI (SW-620 colon) greater than 100 µM. The TGI (LOX IMVI melanoma) was greater than 100 µM, the TGI (UO-31 renal) was greater than 100 µM and the TGI (A549 NSCLC) was greater than 100 µM. It also gave a TGI (IGROV1 ovarian) greater than 100 µM, a TGI (SN12C renal) greater than 100 µM and a TGI (HOP-92 NSCLC) greater than 100 µM. For the same compound, the TGI (UACC-257 melanoma) was greater than 100 µM, the TGI (U251 CNS) was greater than 100 µM and the TGI (SF-268 CNS) was greater than 100 µM. For the same compound, the TGI (HL-60(TB) leukemia) was greater than 100 µM, the TGI (HCT-15 colon) was greater than 100 µM and the TGI (SF-539 CNS) was greater than 100 µM. For the same compound, the TGI (RPMI-8226 leukemia) was greater than 100 µM, the TGI (TK-10 renal) was greater than 10 µM and the TGI (SK-MEL-5 melanoma) was greater than 100 µM. The TGI (OVCAR-8 ovarian) was greater than 100 µM, the TGI (SK-MEL-2 melanoma) was greater than 100 µM and the TGI (HOP-62 NSCLC) was greater than 100 µM. For the same compound, the TGI (NCI-H23 lung) was greater than 100 µM, the TGI (SNB-19 CNS) was greater than 100 µM and the TGI (SNB-75 CNS) was greater than 100 µM. For the same compound, the TGI (EKVX NSCLC) was greater than 100 µM, the TGI (K-562 leukemia) was greater than 100 µM and the TGI (COLO 205 colon) was greater than 100 µM. It also gave a TGI (786-0 renal) greater than 100 µM, a TGI (CAKI-1 renal) greater than 100 µM and a TGI (DMS 114 small cell lung) greater than 100 µM. It also gave a TGI (M19-MEL melanoma) greater than 100 µM, a TGI (ACHN renal) greater than 100 µM and a TGI (MOLT-4 leukemia) greater than 100 µM. The TGI (SR leukemia) was greater than 100 µM, the TGI (DMS 273 small cell lung) was greater than 100 µM and the TGI (KM12 colon) was greater than 100 µM. It also gave a TGI (NCI-H522 lung) greater than 100 µM, a TGI (KM20L2 colon) greater than 100 µM and a TGI (MALME-3M melanoma) greater than 100 µM. For the same compound, the TGI (SK-OV-3 ovarian) was greater than 100 µM, the TGI (SNB-78 CNS) was greater than 100 µM and the TGI (NCI-H460 lung) was greater than 100 µM. It also gave a TGI (OVCAR-5 ovarian) greater than 100 µM, a TGI (RXF 393 renal) greater than 10 µM and a TGI (HCC-2998 colon) greater than 100 µM. For the same compound, the TGI (HCT-116 colon) was greater than 100 µM, the TGI (NCI-H226 lung) was greater than 100 µM and the TGI (OVCAR-3 ovarian) was greater than 100 µM. The TGI (OVCAR-4 ovarian) was greater than 100 µM, the TGI (UACC-62 melanoma) was greater than 100 µM and the TGI (M14 melanoma) was greater than 100 µM. For the same compound, the TGI (A498 renal) was greater than 100 µM and the TGI (HT29 colon) was greater than 100 µM.
